What was measured:
[1] = Solubility of iosimenol in organic solvents (crystallization attempts); type: physicochemical
Source text: The present inventors applied crystallization methods described in literature, but this approach always failed, independently on using crude or purified iosimenol. If any solid was obtained, we usually obtained solid of gummy consistency and we never observed any purity increase.

[2] = Heat stability of iosimenol in crystallization solution (colour change, impurities); type: physicochemical; conditions: between 80-110° C.
Source text: Although contrast media are relatively stable compounds, usually after a long-term exposure to heat, certain degradation may occur. The most vulnerable are amide groups and covalently bound iodine. In case of iosimenol, the acidic hydrogens on aliphatic carbon of malonyl group may cause cleavage of the bridge at higher temperature and can lead to form monomeric impurities. These all mentioned degradations are more intensive under strong acidic or strong basic conditions. Using our experience in formulation of iosimenol, we used trometamol as a buffer to control pH between 6-7 from the viewpoint of influencing of color. Ideal conditions for iosimenol crystallization are when the crystallization is performed at shortest process time at lowest possible temperature under suitable and controlled pH between 6-7 by buffer from the viewpoint of influencing of color.
Therefore, ideal conditions for crystallization are temperatures between 80-110° C., pH 6-7 and as short as possible time for crystallization.

## NC(=O)c1c(I)c(C(=O)NCC(O)CO)c(I)c(N(CC(O)CO)C(=O)CC(=O)N(CC(O)CO)c2c(I)c(C(N)=O)c(I)c(C(=O)NCC(O)CO)c2I)c1I (stereo not drawn) [iosimenol, N,N′-bis[3-carbamoyl-5-(2,3-dihydroxypropyl-carbamoyl)-2,4,6-triiodophenyl]-N,N′-bis(2,3-dihydroxypropyl)-malonamide]
[1]; alcohols, ethers and alkoxyalcohols
  solubility in solvents: practically insoluble
[1]; aprotic solvents like dimethylformamide
  solubility in aprotic solvents: extremely high solubility
[2]
  degradation on heating (impurities): no new impurities or increased level of known impurities are observed

Reference: US10544089B2, “Innovative preparation and crystallization of iosimenol” (OTSUKA PHARMACEUTICAL CO., LTD., priority 2015, dated 2020)
